Reference: patent publication US9776972B2, “Pyrazole derivatives as arginine methyltransferase inhibitors and uses thereof” (priority 2013, dated 2017)

Columns and labels:
human PRMT6 = biological target: T1, human PRMT6 (Homo sapiens, UniProt Q96LA8); experiment: PRMT6 Biochemical Assay (3H-SAM Flashplate, peptide substrate); conditions: Biochemical IC50 PRMT6, single experiment or average of multiple experiments
T1 construct: Flag-PRMT6-His; made in house; host or cells: HEK 293F cells (BacMam baculovirus)
T1 sequence (Q96LA8 with tags, fused parts or gaps): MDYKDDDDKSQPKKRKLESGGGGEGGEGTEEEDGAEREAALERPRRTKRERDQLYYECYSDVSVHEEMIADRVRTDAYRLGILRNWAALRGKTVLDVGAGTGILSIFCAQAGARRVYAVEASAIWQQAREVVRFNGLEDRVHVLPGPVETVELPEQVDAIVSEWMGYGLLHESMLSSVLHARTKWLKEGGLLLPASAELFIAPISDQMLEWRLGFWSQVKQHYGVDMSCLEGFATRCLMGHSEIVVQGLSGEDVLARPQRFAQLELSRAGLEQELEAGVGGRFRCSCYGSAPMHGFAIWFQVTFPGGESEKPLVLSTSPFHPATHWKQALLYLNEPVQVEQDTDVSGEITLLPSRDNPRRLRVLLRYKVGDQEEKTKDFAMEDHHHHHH
In short: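 Flag-PRMT6-His, expressed in mammalian cells from a BacMam vector, was preincubated with compound for 30 min at room temperature in Bicine pH 7.6 buffer with TCEP, BSG and Tween 20. Reactions were started with ³H-SAM and a biotinylated histone H4 36-50 peptide, then stopped with cold SAM (400 uM final). Labeled peptide was captured on streptavidin Flashplates, counted, and fitted to a 3- or 4-parameter curve.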

[1] = system: mono-methyl arginine in RKO cells; experiment: RKO Methylation Assay, In Cell Western (ICW) for mono-methyl arginine and DNA content; assay type: cell-based; conditions: Homo sapiens, RKO, 72 h, RKO cells, 72 hours, mono-methyl arginine, percent activation; single experiment or average of multiple experiments; read-out: EC30 (In Cell Western data, Numerical)
In short: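 RKO cells treated with compound for 72 hours at 37 °C, then methanol-fixed and stained overnight at 4 °C with anti-mono-methyl arginine antibody, plus DRAQ5 for DNA. Signal ratio from 700 and 800 nm infrared scans normalized to DMSO (minimum) and 20 μM reference compound (maximum); EC30 from triplicate curves.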

SMILES | IC50 (human PRMT6) [µM] | EC30 [1] [µM]
CNCCN(C)Cc1n[nH]cc1-c1ccc(Oc2cccc(C#N)c2)cc1 [Compound 267] | 0.00156 | 0.694
CNCCN(C)Cc1n[nH]cc1-c1ccc(Oc2cccc(C(=O)NC)c2)cc1 [Compound 268] | 0.002 | 3.69
CNCCN(C)Cc1n[nH]cc1-c1ccc(Oc2cccc(F)c2)cc1 [Compound 270] | 0.00124 | 1.06
CNCCN(C)Cc1n[nH]cc1-c1cc(CC(C)C)cc(CC(C)C)c1 [Compound 271] | 0.864 | > 20
CNCCN(C)Cc1n[nH]cc1-c1cc(OC(C)C)cc(C(C)C)c1 [Compound 272] | > 1 | > 20
CNCCN(C)Cc1n[nH]cc1-c1cc(Cl)c(OC(C)C)c(Cl)c1 [Compound 273] | 0.0316 | 1.3
CNCCN(C)Cc1c[nH]nc1-c1ccc(Oc2ccccc2C(=O)NC)cc1 [Compound 274] | 0.00757 | 3.04
CNCCN(C)Cc1n[nH]c(C)c1-c1ccc(OC(C)C)cc1 [Compound 275] | 0.0209 | 0.122
CNCCN(C)Cc1c(-c2ccc(OCCCOC)cc2)cnn1C [Compound 276] | > 1 | > 20
CNCCN(C)Cc1n[nH]cc1-c1ccc(Oc2cccc(C(C)C)c2)cc1 [Compound 277] | 0.00166 | > 20
CNCCN(C)Cc1n[nH]cc1-c1ccc(Oc2ccccc2F)cc1 [Compound 279, N^1-((4-(4-(2-fluorophenoxy)phenyl)-1H-pyrazol-3-yl)methyl)-N^1,N^2-dimethylethane-1,2-diamine] | 0.00187 | 0.637
CC(C)Cc1cc(-c2n[nH]cc2CN(C)CCN)ccc1F [Compound 280] | 0.0102 | 1.72
CNCCN(C)Cc1c[nH]nc1-c1cc(CC(C)C)cc(CC(C)C)c1 [Compound 281] | 0.241 | 3.52
CNCCN(C)Cc1c[nH]nc1-c1cc(Cl)c(OCC2CC2)c(Cl)c1 [Compound 282] | 0.00475 | 0.383
